Measurements: patent US20130202724A1, “SOYBEAN EXTRACTS FOR THE TREATMENT OF HEPATIC DISORDERS” (Hadasit Medical Research Services and Development Ltd., priority 2010, published 2013)

How the values were obtained:
[1] = tested on: ConA-challenged C57BL-6 mice; experiment: ConA-induced hepatotoxicity with soybean-derived extracts (Example 6); format: in vivo; details: combinations 1:1, especially 0.3 and 3 μg per mouse
Protocol: Either two (Example 1 (A)) or three (Example 1 (B)) groups of mice (10 mice per group) were studied. ConA was dissolved in 50 mM Tris (pH 7), 150 mM NaCl, and 4 mM CaCl2. To induce autoimmune hepatitis, mice were injected i.v. with 20 mg/kg ConA. Control mice were injected with PBS. A specified dosage of […] or vehicle was administered to the mice orally […] before (Example 1 (A)) or 30 min after (Example 1 (B)) they had received an injection of ConA. The mice were sacrificed 16 h (Example 1 (A)) or 17 h (Example 1 (B)) later. For Example 4 (ConA challenge in different […] extracts), six groups of 4-5 11-12 weeks old male C57BL/6 mice were treated per os for three days with extracts as show in Table 4. The mice were injected i.v. (tail vein) 500 μg of ConA, (20 mg/kg body weight) and sacrificed 14 h later. After sacrifice measurements of serum IFN-γ was carried out using ELISA. […] Serum ALT and AST activities were determined and serum levels of IFN-γ and TNF-α were measured. […] Serum levels of IFN-γ, TNF-α, and IL-6 were determined by “sandwich” ELISA using commercial kits according to the manufacturer's instructions. […] Serum ALT and AST activities were determined and serum levels of IFN-γ and TNF-α were measured.

HFD-fed mice = experiment: HFD obese mouse model with soybean extracts M1, OS and combinations (Example 7); format: in vivo
Protocol: Five mice per experimental group were fed HFD diet, comprising 42% calories from fat. The mice were administered the indicated extracts per os 3 times a week for three months, and then sacrificed. The mice weight, fasting glucose levels, ALT, serum triglycerides (TGs) and cholesterol were determined every 2 weeks. Glucose Tolerance Test was performed after 4 and 12 weeks. On sacrifice day, serum and a liver biopsy were collected for determination of serum insulin levels, liver TG and for H&E histological analysis.
After sacrifice, measurements of serum ALT and AST activities were carried out, and serum levels of IFN-γ, TNF-α and insulin were determined.
TGs were extracted from aliquots of snap-frozen livers using a modification of the Folch method. Hepatic TG content was assayed spectrophotometrically using a GPO-Trinder kit and was normalized to the protein content in the homogenate.
Plasma TG and total cholesterol were measured by a clinical chemistry analyzer, the Reflovet Plus machine.
Fasting glucose levels were measured after overnight (12 h) fasting. Serum glucose measurements were performed on tail-vein blood by a standard glucometer.
Mice underwent a GTT after overnight fasting. Glucose was administered orally (1.25 g/kg body weight). Serum glucose measurements were performed on tail-vein blood every 15 min for 3 h. Glucose levels were measured by a standard glucometer.
Serum insulin levels were determined using a commercially available ELISA kit (Mercodia), according to the manufacturer's instructions. Serum was collected from euthanized mice on the day of sacrifice (after 12 h fasting) and kept in −80° C. until analysis.
Serum levels of IFN-γ, TNF-α, and IL-6 were determined by “sandwich” ELISA using commercial kits according to the manufacturer's instructions.
Flow cytometry was performed following splenocyte and hepatic lymphocyte isolation using 1×10^6 lymphocytes in 100 μl PBS with 0.1% BSA. For surface staining, cells were incubated with fluorochrome-conjugated antibodies to the indicated cell surface markers at the recommended dilutions or with isotype control antibodies for 30 minutes at 4° C. The following cell surface anti-mouse antibodies were used: CD4/CD3-Pacific Blue, CD25/NK1.1-PE and CD8-FITC. Cells were then washed in PBS containing 1% BSA and fixed with fixation buffer for another 50 minutes. For intracellular staining of Foxp3, fixed cells were permeabilized with Foxp3 staining buffer. Cells were then stained with PE-Cy7-conjugated antibodies to Foxp3, washed twice and resuspended in 250 μl of PBS containing 1% BSA and kept at 4° C. One million stained cells in 250 μl of PBS containing 1% BSA were subsequently analyzed using a FACS LSR II instrument with FCS express V.3 software. Only live cells were counted, and background fluorescence from non-antibody-treated lymphocytes was subtracted.
A HFD obese mouse model was therefore used to assess the hepatoprotective action of the soybean extracts M1, OS and their combinations. Young (6-7 weeks old) male C57BL/6 mice (5 mice per experimental group) were fed HFD diet ad libitum for 12 weeks. The mice were administered the indicated soybean extracts or combinations per os 3 times a week for the duration of the experiment. After 12 weeks, the mice were sacrificed. During the experiment the mice weight, fasting glucose level, ALT, serum triglycerides (TGs) and cholesterol were measured every 2 weeks, and glucose tolerance test was carried out after the fourth and twelfth weeks. On sacrifice day, serum samples and livers were collected. Serum TNF-α and insulin were determined, hepatic TG were measured and a liver section stained with H&E was prepared and analyzed. A FACS analysis of splenic T regulatory and NKT cells was also performed.

Substance: glucosylceramide [GC]
- hepatic protection (liver enzymes and serum IFN-γ and TNF-α), summary [1]: significant decrease
- effectiveness over all tested parameters, summary (HFD-fed mice; HFD model, combinations 1:1, 0.3 μg and 3 μg per mouse): effective but not in all tested parameters
- fasting glucose levels (HFD-fed mice; M1/OS mixtures (both doses), GC 25 μg, vs control mice): significantly lower
- GTT results (HFD-fed mice; after 12 weeks in HFD, vs control and OS-treated mice): marked improvement
- liver lipid accumulation (H&E stained liver sections) (HFD-fed mice; both M1/OS mixture doses (0.3 μg each and 3 μg each), GC 25 μg): striking improvement
- hepatic TG levels (HFD-fed mice; single agents (M1 3 μg, GC 25 μg), week 12, vs control mice): no clear effect
- fasting insulin levels (HFD-fed mice; single agents (OS 3 μg, GC 25 μg, M1 3 μg), week 12): lowest
